Assay results reported in US9204640B2, “2-acyloxy-pyrrolin-4-ones” (BAYER INTELLECTUAL PROPERTY GMBH, priority 2011, dated 2015).

Tests used:
Format in all cases: in vivo
[1] = test system: Phaedon cochleariae; test: Phaedon test (PHAECO spray treatment); conditions: application rate 500 g/ha, after 7 days, Chinese cabbage leaf discs
Description: Phaedon Test ([…] Spray Treatment) [table] To produce a suitable preparation of active compound, 1 part by weight of active compound is mixed with the stated amount of solvent and emulsifier, and the concentrate is diluted with emulsifier-containing water to the desired concentration. Discs of Chinese cabbage (Brassica pekinensis) are sprayed with an active compound preparation of the desired concentration and, after drying, populated with larvae of the mustard beetle (Phaedon cochleariae). After 7 days, the effect in % is determined 100% means that all beetle larvae have been killed; 0% means that none of the beetle larvae have been killed. Phaedon Test ([…] Spray Treatment) To produce a suitable preparation of active compound, 1 part by weight of active compound is mixed with the stated amount of solvent and emulsifier, and the concentrate is diluted with emulsifier-containing water to the desired concentration. Discs of Chinese cabbage (Brassica pekinensis) are sprayed with an active compound preparation of the desired concentration and, after drying, populated with larvae of the mustard beetle (Phaedon cochleariae). After the desired period of time, the activity in % is determined. 100% means that all beetle larvae have been killed; 0% means that none of the beetle larvae have been killed.

[2] = test system: Spodoptera frugiperda; test: Spodoptera frugiperda test (SPODFR spray treatment); conditions: application rate 500 g/ha, after 7 days, corn leaf discs
Description: Spodoptera Frugiperda Test (SPODFR Spray Treatment) [table] To produce a suitable preparation of active compound, 1 part by weight of active compound is mixed with the stated amount of solvent and emulsifier, and the concentrate is diluted with emulsifier-containing water to the desired concentration. Discs of corn leaves (Zea mays) are sprayed with an active compound preparation of the desired concentration and, after drying, populated with caterpillars of the armyworm (Spodoptera frugiperda). After 7 days, the effect in % is determined. 100% means that all caterpillars have been killed; 0% means that none of the caterpillars have been killed. Spodoptera Frugiperda Test (SPODFR Spray Treatment) To produce a suitable preparation of active compound, 1 part by weight of active compound is mixed with the stated amount of solvent and emulsifier, and the concentrate is diluted with emulsifier-containing water to the desired concentration. Discs of corn leaves (Zea mays) are sprayed with an active compound preparation of the desired concentration and, after drying, populated with caterpillars of the armyworm (Spodoptera frugiperda). After the desired period of time, the activity in % is determined. 100% means that all caterpillars have been killed; 0% means that none of the caterpillars have been killed.

[3] = test system: Myzus persicae; test: Myzus test (MYZUPE spray treatment); conditions: application rate 500 g/ha, after 5 days, Chinese cabbage leaf discs
Description: Myzus Test (MYZUPE Spray Treatment) [table] To produce a suitable preparation of active compound, 1 part by weight of active compound is mixed with the stated amount of solvent and emulsifier, and the concentrate is diluted with emulsifier-containing water to the desired concentration. Discs of Chinese cabbage (Brassica pekinensis) infected by all stages of the green peach aphid (Myzus persicae) are sprayed with an active compound preparation of the desired concentration. After 5 days, the effect in % is determined 100% means that all of the aphids have been killed; 0% means that none of the aphids have been killed. Myzus Test (MYZUPE Spray Treatment) To produce a suitable preparation of active compound, 1 part by weight of active compound is mixed with the stated amount of solvent and emulsifier, and the concentrate is diluted with emulsifier-containing water to the desired concentration. Discs of Chinese cabbage (Brassica pekinensis) infected by all stages of the green peach aphid (Myzus persicae) are sprayed with an active compound preparation of the desired concentration. After the desired period of time, the activity in % is determined. 100% means that all of the aphids have been killed; 0% means that none of the aphids have been killed.

[4] = test system: Meloidogyne incognita; test: Meloidogyne incognita test (MELGIN); conditions: 20 ppm, after 14 days, lettuce roots
Description: Meloidogyne Incognita Test (MELGIN) [table] To prepare a suitable active compound preparation, 1 part by weight of active compound is mixed with the stated amounts of solvent and the concentrate is diluted with water to the desired concentration. Containers are filled with sand, solution of active compound, Meloidogyne incognita egg/larvae suspension and lettuce seeds. The lettuce seeds germinate and the plants develop. On the roots, galls are formed. After 14 days, the nematicidal effect in % is determined by the formation of galls. 100% means that no galls have been found; 0% means that the number of galls on the treated plants corresponds to the untreated control.

[5] = test system: Myzus persicae; test: Myzus persicae test (MYZUPE Tau), leaf dipping; conditions: Myzus persicae, foliar, 144 h, 6dat
Description: Myzus Persicae Test (MYZUPE Tau) To produce a suitable preparation of active compound, 1 part by weight of active compound is mixed with the stated amount of solvent and emulsifier, and the concentrate is diluted with emulsifier-containing water to the desired concentration. Cabbage leaves (Brassica oleracea) which are heavily infested by the green peach aphid (Myzus persicae) are treated by dipping into the active compound preparation of the desired concentration. After the desired period of time, the kill in % is determined. 100% means that all of the aphids have been killed; 0% means that none of the aphids have been killed.

[6] = test system: Myzus persicae; test: Myzus persicae test; hydroponic treatment (MYZUPE Sys); conditions: Myzus persicae, 144 h, 6dat
Description: Myzus Persicae Test; Hydroponic Treatment (MYZUPE Sys)
To produce a suitable preparation of active compound, 1 part by weight of active compound is mixed with the stated amounts of solvent and emulsifier, and the concentrate is diluted with water to the desired concentration.
The active compound preparation is mixed with water. The stated concentration refers to the amount of active compound per volume unit of water (mg/l=ppm). The treated water is filled into vessels containing a pea plant (Pisum sativum), and the plant is the infested with the green peach aphid (Myzus persicae).
After the desired period of time, the kill in % is determined 100% means that all of the aphids have been killed; 0% means that none of the aphids have been killed.

[7] = test system: Setaria viridis; test: Herbicidal pre-emergence action, SETVI; conditions: Setaria viridis, pre-emergence, 20 g/ha
Description: 1. Herbicidal Pre-Emergence Action
• Seeds of monocotyledonous and dicotyledonous weed plants and crop plants are placed in wood-fiber pots in sandy loam and covered with soil. The test compounds, formulated in the form of wettable powders (WP), are then, as an aqueous suspension with a water application rate of 600 l/ha (converted), with 0.2% of wetting agent added, applied at various dosages to the surface of the covering soil. • After the treatment, the pots are placed in a greenhouse and kept under good growth conditions for the test plants. The visual assessment of the damage to the test plants is carried out after a trial period of about 3 weeks by comparison with untreated controls (herbicidal activity in percent: 100% activity=the plants have died, 0% activity=like control plants). • In addition to the compounds mentioned above, the following compounds show an activity of 90-100% against Alopecurus myosuroides, Digitaria sanguinalis, Echinocloa crus-galli, Lolium multiflorum, Setaria viridis and Sorghum halapense when applied by the pre-emergence method at 320 g/ha of a.i.: I-a-2, I-a-10, I-a-11, I-a-12.
1. Herbicidal Pre-Emergence Action (Pre)
(§1) • Seeds of monocotyledonous and dicotyledonous weed plants and crop plants are placed in wood-fiber pots in sandy loam and covered with soil. The test compounds, formulated in the form of wettable powders (WP) or emulsion concentrates (EC), are then, as an aqueous suspension with a water application rate of 600-800 l/ha (converted), with 0.1-0.2% of wetting agent added, applied at various dosages to the surface of the covering soil. • After the treatment, the pots are placed in a greenhouse and kept under good growth conditions for the test plants. […] Herbicidal Post-Emergence Action (Post) • Seeds of monocotyledonous and dicotyledonous weed and crop plants are placed in sandy loam in wood-fiber pots, covered with soil and cultivated in a greenhouse under good growth conditions. 2-3 weeks (stages 10-13 according to the BBCH scale) after sowing, the test plants are treated at a height of 5-10 cm. The test compounds, formulated as wettable powders (WP) or emulsion concentrates (EC), are then, with a water application rate of 600-800 l/ha (converted), with 0.1-0.2% of wetting agent added, sprayed at various dosages onto the green parts of the plants.
(§2) AVEFA: Avena fatua LOLMU: Lolium multiflorum SETVI: Setaria viridis CHEAL: Chenopodium album VIOTR: Viola tricolor VERPE: Veronica persica ORYSA: Oryza sativa TRZAS: Triticum aestivum ZEAMX: Zea mays ALOMY: Alopecurus myosuroides DIGSA: Digitaria sanguinalis ECHCG: Echinocloa crus-galli SORHA: Sorghum halepense AVESA: Avena sativa AMARE: Amaranthus retroflexus SINAL: Sinapis alba STEME: Stellaria media

[8] = test system: Alopecurus myosuroides; test: Herbicidal post-emergence action, ALOMY; conditions: Alopecurus myosuroides, post-emergence, 20 g/ha
Description: (§3) 2. Herbicidal Post-Emergence Action
(§4) • Seeds of monocotyledonous and dicotyledonous weed and crop plants are placed in sandy loam in wood-fiber pots, covered with soil and cultivated in a greenhouse under good growth conditions. 2 to 3 weeks after sowing, the test plants are treated at the one-leaf stage. The test compounds, formulated as wettable powders (WP), are then, with a water application rate of 600 l/ha (converted), with 0.2% of wetting agent added, sprayed at various dosages onto the green parts of the plants. After the test plants have been kept in the greenhouse under optimum growth conditions for about 3 weeks, the activity of the preparations is rated visually in comparison to untreated controls (herbicidal activity in percent: 100% activity=the plants have died, 0% activity=like control plants). • In addition to the compounds mentioned above, the following compounds show an activity of 90-100% against Alopecurus myosuroides, Avena fatua, Digitaria sanguinalis, Echinocloa crus-galli, Lolium multiflorum, Setaria viridis and Sorghum halapense when applied by the post-emergence method at 320 g/ha: I-a-2, I-a-4, I-a-5, I-a-7, I-a-9, I-a-10, I-a-11, I-a-12, I-a-13, I-a-15. • In addition to the compounds mentioned above, the following compounds show an activity of 90-100% against Alopecurus myosuroides, Avena fatua, Echinocloa crus-galli, Lolium multiflorum and Setaria viridis when applied by the post-emergence method at 80 g/ha: I-a-1, I-b-2.
as §1, §2

[9] = test system: Digitaria sanguinalis; test: Herbicidal post-emergence action, DIGSA; conditions: Digitaria sanguinalis, post-emergence, 20 g/ha
Description: as §3, §4, §1, §2

[10] = test system: Echinocloa crus-galli; test: Herbicidal post-emergence action, ECHCG; conditions: Echinochloa crus-galli, post-emergence, 20 g/ha
Description: as §3, §4, §1, §2

[11] = test system: Nilaparvata lugens; test: Nilaparvata lugens test (NILALU hydroponic treatment); conditions: 20 ppm, after 7 days
Description: Nilaparvata Lugens Test ([…] Hydroponic Treatment) To produce a suitable preparation of active compound, 1 part by weight of active compound is mixed with the stated amount of solvent and emulsifier, and the concentrate is diluted with emulsifier-containing water to the desired concentration. The active compound preparation is pipetted into water. The stated concentration refers to the amount of active compound per volume unit of water (mg/l=ppm), the sample is then infected with the brown planthopper (Nilaparvata lugens). After 7 days, the effect in % is determined 100% means that all of the planthoppers have been killed; 0% means that none of the planthoppers have been killed.

| Structure (SMILES) | effect in % (beetle larvae killed) [1] | effect in % (caterpillars killed) [2] | effect in % (aphids killed) [3] | nematicidal effect in % (formation of galls) [4] | inhibition at 20 ppm [5] | inhibition at 20 ppm [6] | inhibition at 20 g/ha [7] | inhibition at 20 g/ha [8] | inhibition at 20 g/ha [9] | inhibition at 20 g/ha [10] | effect in % (planthoppers killed) [11] |
| --- | --- | --- | --- | --- | --- | --- | --- | --- | --- | --- | --- |
| COc1cc(C)cc(C)c1C1=C(OC(=O)C(C)(C)C)NC2(CCC(OC)CC2)C1=O (stereo not shown) [I-a-2] | 100% | 100% | 100% | 100% |  |  |  |  |  |  |  |
| CCOC(=O)OC1=C(c2c(C)cc(I)cc2CC)C(=O)NC12CCC(OC)CC2 (stereo not shown) [I-1-c-1 known from WO 06/029799] |  |  |  |  | 50% | 60% | 20% | 30% | 30% | 30% |  |
| CCc1cc(C)cc(Br)c1C1=C(OC(=O)C(C)(C)C)NC(C)(C)C1=O [I-a-13] | 83% |  | 80% |  |  |  |  |  |  |  | 100% |
